Data on 32 sequences can be found in the OligoGym collection.

“And” between values parts separate entries of the source, which are not always exact repeats. Equal entries are not always repeated. After the bases stand the sugars from the 5' end (letter, count) and the backbone: PS all phosphorothioate, else s phosphorothioate and o phosphodiester by linkage. Methylation of C is not given here. e = 2'-O-(2-methoxyethyl) (MOE); l = locked nucleic acid (LNA); k = constrained ethyl (cEt); d = 2'-deoxy (DNA)

For series [1], the target named is ANGPTL2. To be noted: ASO.
Series [2] deals with KRAS. The note with it: ASO.

Consider “CAGAACAATGGGGAGGA (sugars l3 d12 l2, PS)”, for which the figures for the target mRNA inhibition in series [1] (5 µM) and in series [1] (25 µM) were 58.5% and 51.1%, respectively.

Consider “TATTAGCATCACTACTTT (sugars l4 d11 l3, PS)”, for which the target mRNA inhibition in series [1] (5 µM) stood at 48%; in series [1] (25 µM), 52.1%.

In the case of “GAACCTCAATATCCTGC (sugars l1 d13 l3, PS)”, the figures for the target mRNA inhibition in series [1] (5 µM) and in series [1] (25 µM) were 62.6% and 72.6%, respectively.

For “CAGGCCAACACTAACTCG (sugars l1 d14 l3, PS)”, the figures for the target mRNA inhibition in series [1] (5 µM) and in series [1] (25 µM) were 73.4% and 84.2%, respectively.

As for “GTGGGCAGGAGAAGGGAC (sugars l1 d15 l2, PS)”, the target mRNA inhibition in series [1] (5 µM) is 17.8%; in series [1] (25 µM), -18.2%.

For ATAACGCCCACTGAGA (sugars l1 d11 l4, PS), the values for the target mRNA inhibition in series [1] (5 µM) and in series [1] (25 µM) were 24.4% and 39.7%, respectively.

As to “ATTTACTGTCTGCCCAG (sugars l2 d12 l3, PS)”, the target mRNA inhibition worked out at 54.6% in series [1] (5 µM) and 59.5% in series [1] (25 µM).

Consider “TGACCCCTGATTATTCA (sugars l1 d13 l3, PS)”, for which the results for the target mRNA inhibition in series [1] (5 µM) and in series [1] (25 µM) were 7.55% and 4.06%, respectively.

As to “ATTTTGAGATTCCCCCAA (sugars l1 d14 l3, PS)”, the target mRNA inhibition in series [1] (5 µM) stood at 3.44%; in series [1] (25 µM), 20.9%.

Take “TCCAAGGCACTCTATGAT (sugars l2 d14 l2, PS)”: the target mRNA inhibition is 13.8% in series [1] (5 µM) and 27.7% in series [1] (25 µM).

With ACAACTCACATTCATAG (sugars l4 d9 l4, PS), the target mRNA inhibition in series [1] (5 µM) stood at 49%; in series [1] (25 µM), 54.7%.

Regarding “AGCTCAGTGGTGAGATGG (sugars l1 d15 l2, PS)”, the target mRNA inhibition in series [1] (5 µM) amounted to 54.1%; in series [1] (25 µM), 54.8%.

Consider “GTATTGTGAGGAGTTTC (sugars l4 d11 l2, PS)”, for which the values for the target mRNA inhibition in series [1] (5 µM) and in series [1] (25 µM) were 80% and 84.3%, respectively.

Take “CAGGCGTCTCTGGATGA (sugars l1 d14 l2, PS)”: the values for the target mRNA inhibition in series [1] (5 µM) and in series [1] (25 µM) were 17.4% and 10.6%, respectively.

With GAGTTCATGTTGCGGC (sugars l1 d13 l2, PS), the target mRNA inhibition was found to be 21.4% in series [1] (5 µM) and 24.9% in series [1] (25 µM).

Regarding “GAACTCAGCCCAGTAGA (sugars l1 d14 l2, PS)”, the target mRNA inhibition was 1.82% in series [1] (5 µM) and 15.7% in series [1] (25 µM).

For the sequence “AATTACTCCACACTTTCA (sugars l3 d12 l3, PS)”, the target mRNA inhibition in series [1] (5 µM) was 55.7%; in series [1] (25 µM) it was 61.6%.

As to “AAGTTGATAGTTTATCTCCT (sugars l2 d16 l2, PS)”, the figures for the target mRNA inhibition in series [1] (5 µM) and in series [1] (25 µM) were 60.9% and 72%, respectively.

Consider “ATCTGGTTGATGATGCGG (sugars l2 d14 l2, PS)”, for which the figures for the target mRNA inhibition in series [1] (5 µM) and in series [1] (25 µM) were 75.2% and 82.3%, respectively.

For GATGATGCGGTTGTAG (sugars l4 d10 l2, PS), the target mRNA inhibition in series [1] (5 µM) is 70%; in series [1] (25 µM), 75.2%.

As to “CCTTGCAAAATGGTGGTT (sugars l2 d14 l2, PS)”, the target mRNA inhibition in series [1] (5 µM) is 49.6%; in series [1] (25 µM), 57.4%.

Regarding “AGATGAATATAGTTCTC (sugars l4 d10 l3, PS)”, the values for the target mRNA inhibition in series [1] (5 µM) and in series [1] (25 µM) were 55.3% and 65.9%, respectively.

Consider “ACTGGTGAGGAGTTGTT (sugars l2 d13 l2, PS)”, for which the target mRNA inhibition in series [1] (5 µM) was determined as 26%; in series [1] (25 µM), 25.8%.

In the case of “AGTTACTCTTAGCCAAA (sugars l3 d10 l4, PS)”, the target mRNA inhibition worked out at 82.6% in series [1] (5 µM) and 84.8% in series [1] (25 µM).

On to TTGATTTGTCAGCAGG (sugars k3 d10 k3, PS), for which the target mRNA inhibition in series [2] (A431, 0.185 µM) was 41%; in series [2] (A431, 0.556 µM), 60%; in series [2] (A431, 1.667 µM) it was 77%; in series [2] (A431, 2 µM), 65% and 66% and 74%; in series [2] (A431, 5 µM), 87%.

As for “CTTGATTTGTCAGCAG (sugars kddddddddddkekek, PS)”, the target mRNA inhibition in series [2] (A431, 0.037 µM) came to 62%; in series [2] (A431, 2 µM) it was 45%.

CAGTGTGACTCAGTTA (sugars k3 d10 k3, PS): the target mRNA inhibition in series [2] (A431, 2 µM) stood at 53%.

Turning to AATCCATTTATGTGAC (sugars k3 d10 k3, PS), the target mRNA inhibition in series [2] (A431, 2 µM) turned out to be 26%.

Consider “TTAGTGATTAGGTCAA (sugars kkddddddddddkeke, PS)”, for which the target mRNA inhibition in series [2] (A431, 2 µM) was 22%.

Regarding CATTGTTTAAAAAAAA (sugars k3 d10 k3, PS), the target mRNA inhibition in series [2] (A431, 2 µM) was 0%.

On to TTCTGTCTATTCATAC (sugars k3 d10 k3, PS), for which the target mRNA inhibition in series [2] (A431, 2 µM) was determined as 10%.

For the sequence GATTGTGCTGAGCTTG (sugars k3 d10 k3, PS), the target mRNA inhibition in series [2] (A431, 2 µM) was found to be 63%.
